Results from PubChem BioAssay AID1745844 (Carcinogenic Potency Database (CPDB), 2022).
Where “and” joins values, the source holds several entries; their conditions need not be identical. Equal values may be shown once. Calls of active or inactive are those of the source. The rule behind the calls is not given here.

Tested on: rodent lifetime carcinogenesis bioassay, tumor incidence TD50
Assay: chronic cancer bioassays in animals – CPDB, compiled studies (AID 1745844)

`Cc1cc(Cl)ccc1N` was tested, and the TD50 (mouse, strain B6C3F1, females, in feed, site: all sites, lesion: hemangioma + hemangiosarcoma, dosed 95 weeks, study length 99 weeks) was 40 mg/kg/day, the TD50 (mouse, strain B6C3F1, females, in feed, site: all sites, lesion: hemangiosarcoma, dosed 95 weeks, study length 99 weeks) was 42.3 mg/kg/day and the TD50 (mouse, strain B6C3F1, females, in feed, site: any site (literature study), lesion: several types, types named in the paper, dosed 95 weeks, study length 99 weeks) was 38.8 mg/kg/day. For the same compound, the TD50 (mouse, strain B6C3F1, females, in feed, site: liver, lesion: hepatocellular adenoma + hepatocellular carcinoma + neoplastic nodule, dosed 95 weeks, study length 99 weeks) was 754 mg/kg/day, the TD50 (mouse, strain B6C3F1, females, in feed, site: lung, lesion: alveolar/bronchiolar adenoma + alveolar/bronchiolar carcinoma, dosed 95 weeks, study length 99 weeks) was 798 mg/kg/day and the TD50 (mouse, strain B6C3F1, males, in feed, site: all sites, lesion: hemangioma + hemangiosarcoma, dosed 99 weeks, study length 99 weeks) was 743 mg/kg/day. For the same compound, the TD50 (mouse, strain B6C3F1, males, in feed, site: all sites, lesion: hemangiosarcoma, dosed 99 weeks, study length 99 weeks) was 911 mg/kg/day, the TD50 (mouse, strain B6C3F1, males, in feed, site: any site (literature study), lesion: several types, types named in the paper, dosed 99 weeks, study length 99 weeks) was 537 mg/kg/day and the TD50 (mouse, strain B6C3F1, males, in feed, site: liver, lesion: hepatocellular adenoma + hepatocellular carcinoma + neoplastic nodule, dosed 99 weeks, study length 99 weeks) was 3260 mg/kg/day. For the same compound, the TD50 (mouse, strain CD-1 HaM/ICR, females, in feed, site: all sites, lesion: all vascular tumors, dosed 51 weeks, study length 60 weeks) was 15.7 mg/kg/day and 18.4 mg/kg/day, the TD50 (mouse, strain CD-1 HaM/ICR, females, in feed, site: any site (literature study), lesion: several types, types named in the paper, dosed 51 weeks, study length 60 weeks) was 15.6 mg/kg/day and the TD50 (mouse, strain CD-1 HaM/ICR, females, in feed, site: liver, lesion: several types, types named in the paper, dosed 51 weeks, study length 60 weeks) was 139 mg/kg/day (inactive). The TD50 (mouse, strain CD-1 HaM/ICR, females, in feed, site: lung, lesion: several types, types named in the paper, dosed 51 weeks, study length 60 weeks) was 153 mg/kg/day (inactive), the TD50 (mouse, strain CD-1 HaM/ICR, males, in feed, site: all sites, lesion: all vascular tumors, dosed 55 weeks, study length 60 weeks) was 15.4 mg/kg/day and the TD50 (mouse, strain CD-1 HaM/ICR, males, in feed, site: any site (literature study), lesion: several types, types named in the paper, dosed 55 weeks, study length 60 weeks) was 7.72 mg/kg/day. For the same compound, the TD50 (mouse, strain CD-1 HaM/ICR, males, in feed, site: liver, lesion: several types, types named in the paper, dosed 55 weeks, study length 60 weeks) was 95.7 mg/kg/day (inactive), the TD50 (mouse, strain CD-1 HaM/ICR, males, in feed, site: lung, lesion: several types, types named in the paper, dosed 55 weeks, study length 60 weeks) was 8.85 mg/kg/day (inactive) and the TD50 (rat, strain Charles River CD (Sprague-Dawley), males, in feed, site: any site (literature study), lesion: several types, types named in the paper, dosed 77 weeks, study length 98 weeks) was 24.9 mg/kg/day (inactive). For the same compound, the TD50 (rat, strain Charles River CD (Sprague-Dawley), males, in feed, site: liver, lesion: several types, types named in the paper, dosed 77 weeks, study length 98 weeks) was 123 mg/kg/day (inactive), the carcinogen call (rat, strain Fischer 344, females, in feed, site: any site (literature study), lesion: several types, types named in the paper, dosed 107 weeks, study length 107 weeks) was “negative (inactive)” and the TD50 (rat, strain Fischer 344, males, in feed, site: liver, lesion: hepatocellular adenoma + hepatocellular carcinoma + neoplastic nodule, dosed 107 weeks, study length 107 weeks) was 6180 mg/kg/day. The TD50 (rat, strain Fischer 344, males, in feed, site: pituitary gland, lesion: chromophobe adenoma, dosed 107 weeks, study length 107 weeks) was 576 mg/kg/day (inactive).

Compound `C[N+](C)(C)CCO` has a TD50 (mouse, strain C3H/HeN, males, in feed, site: liver, lesion: hepatocellular adenoma, dosed 52 weeks, study length 52 weeks) of 5650 mg/kg/day, a TD50 (mouse, strain C3H/HeN, males, in feed, site: liver, lesion: hepatocellular carcinoma, dosed 52 weeks, study length 52 weeks) of 6060 mg/kg/day and a TD50 (mouse, strain C3H/HeN, males, in feed, site: liver, lesion: several types, types named in the paper, dosed 52 weeks, study length 52 weeks) of 2770 mg/kg/day. The carcinogen call (rat, strain Fischer 344, males, in feed, site: liver, lesion: neoplastic nodule, dosed 72 weeks, study length 103 weeks) was “negative (inactive)”.

`CCN(CC)C(=S)[S-].CCN(CC)C(=S)[S-].[Cd+2]` was tested, and the TD50 (mouse, strain B6AKF1, females, oral dosing, site: any site (literature study), lesion: several types, types named in the paper, dosed 76 weeks, study length 76 weeks) was 47.5 mg/kg/day (inactive), the carcinogen call (mouse, strain B6AKF1, females, oral dosing, site: liver, lesion: hepatoma, dosed 76 weeks, study length 76 weeks) was “negative (inactive)” and the carcinogen call (mouse, strain B6AKF1, females, oral dosing, site: lung, lesion: adenoma, dosed 76 weeks, study length 76 weeks) was “negative (inactive)”. For the same compound, the carcinogen call (mouse, strain B6AKF1, males, oral dosing, site: any site (literature study), lesion: several types, types named in the paper, dosed 76 weeks, study length 76 weeks) was “negative (inactive)”, the carcinogen call (mouse, strain B6AKF1, males, oral dosing, site: liver, lesion: hepatoma, dosed 76 weeks, study length 76 weeks) was “negative (inactive)” and the carcinogen call (mouse, strain B6AKF1, males, oral dosing, site: lung, lesion: adenoma, dosed 76 weeks, study length 76 weeks) was “negative (inactive)”. The TD50 (mouse, strain B6C3F1, females, oral dosing, site: any site (literature study), lesion: several types, types named in the paper, dosed 76 weeks, study length 76 weeks) was 18 mg/kg/day (inactive), the carcinogen call (mouse, strain B6C3F1, females, oral dosing, site: liver, lesion: hepatoma, dosed 76 weeks, study length 76 weeks) was “negative (inactive)” and the TD50 (mouse, strain B6C3F1, females, oral dosing, site: lung, lesion: adenoma, dosed 76 weeks, study length 76 weeks) was 57.4 mg/kg/day (inactive). For the same compound, the TD50 (mouse, strain B6C3F1, males, oral dosing, site: any site (literature study), lesion: several types, types named in the paper, dosed 76 weeks, study length 76 weeks) was 6.2 mg/kg/day (inactive), the TD50 (mouse, strain B6C3F1, males, oral dosing, site: liver, lesion: hepatoma, dosed 76 weeks, study length 76 weeks) was 16.7 mg/kg/day (inactive) and the TD50 (mouse, strain B6C3F1, males, oral dosing, site: lung, lesion: adenoma, dosed 76 weeks, study length 76 weeks) was 25.9 mg/kg/day (inactive).

`COc1ccc2nc(S(=O)Cc3ncc(C)c(OC)c3C)[nH]c2c1` (stereo not drawn) gave a TD50 (rat, strain Sprague-Dawley, females, by gavage, site: gastric mucosa, lesion: carcinoid tumor, malignant, dosed 104 weeks, study length 104 weeks) of 63 mg/kg/day and a TD50 (rat, strain Sprague-Dawley, males, by gavage, site: gastric mucosa, lesion: carcinoid tumor, malignant, dosed 104 weeks, study length 104 weeks) of 1120 mg/kg/day.

`NNc1nc(-c2ccc([N+](=O)[O-])o2)cs1` showed a TD50 (mouse, strain Swiss, females, in feed, site: any site (literature study), lesion: several types, types named in the paper, dosed 46 weeks, study length 55 weeks) of 7.57 mg/kg/day, a TD50 (mouse, strain Swiss, females, in feed, site: forestomach, lesion: squamous-cell papilloma, dosed 46 weeks, study length 55 weeks) of 16.4 mg/kg/day and a TD50 (rat, strain Sprague-Dawley, females, in feed, site: any site (literature study), lesion: several types, types named in the paper, dosed 46 weeks, study length 57 weeks) of 2.83 mg/kg/day. It also gave a TD50 (rat, strain Sprague-Dawley, females, in feed, site: kidney, lesion: several types, types named in the paper, dosed 46 weeks, study length 57 weeks) of 36.8 mg/kg/day, a TD50 (rat, strain Sprague-Dawley, females, in feed, site: liver, lesion: cystadenoma, dosed 46 weeks, study length 66 weeks) of 295 mg/kg/day and a TD50 (rat, strain Sprague-Dawley, females, in feed, site: mammary gland, lesion: adenocarcinoma, dosed 46 weeks, study length 57 weeks) of 7.79 mg/kg/day. It also gave a TD50 (rat, strain Sprague-Dawley, females, in feed, site: mammary gland, lesion: adenocarcinoma, dosed 46 weeks, study length 66 weeks) of 10.9 mg/kg/day, a TD50 (rat, strain Sprague-Dawley, females, in feed, site: mammary gland, lesion: adenofibroma, dosed 46 weeks, study length 57 weeks) of 25.2 mg/kg/day and a TD50 (rat, strain Sprague-Dawley, females, in feed, site: mammary gland, lesion: several types, types named in the paper, dosed 46 weeks, study length 57 weeks) of 2.83 mg/kg/day. The TD50 (rat, strain Sprague-Dawley, females, in feed, site: mammary gland, lesion: several types, types named in the paper, dosed 46 weeks, study length 66 weeks) was 3.66 mg/kg/day and the TD50 (rat, strain Sprague-Dawley, females, in feed, site: salivary gland, lesion: adenocarcinoma, dosed 46 weeks, study length 66 weeks) was 145 mg/kg/day.

`Cc1ccc2c(c1N)C(=O)c1ccccc1C2=O` was tested, and the TD50 (mouse, strain B6C3F1, females, in feed, site: liver, lesion: hepatocellular adenoma + hepatocellular carcinoma + neoplastic nodule, dosed 70 weeks, study length 97 weeks) was 174 mg/kg/day, the TD50 (mouse, strain B6C3F1, females, in feed, site: liver, lesion: hepatocellular carcinoma + neoplastic nodule, dosed 70 weeks, study length 97 weeks) was 174 mg/kg/day and the carcinogen call (mouse, strain B6C3F1, males, in feed, site: any site (literature study), lesion: several types, types named in the paper, dosed 70 weeks, study length 97 weeks) was “negative (inactive)”. It also gave a TD50 (rat, strain Fischer 344, females, in feed, site: liver, lesion: hepatocellular adenoma + hepatocellular carcinoma + neoplastic nodule, dosed 78 weeks, study length 104 weeks) of 115 mg/kg/day, a TD50 (rat, strain Fischer 344, females, in feed, site: liver, lesion: hepatocellular carcinoma + neoplastic nodule, dosed 78 weeks, study length 104 weeks) of 115 mg/kg/day and a TD50 (rat, strain Fischer 344, females, in feed, site: liver, lesion: hepatocellular carcinoma, dosed 78 weeks, study length 104 weeks) of 182 mg/kg/day. The TD50 (rat, strain Fischer 344, males, in feed, site: any site (literature study), lesion: several types, types named in the paper, dosed 78 weeks, study length 104 weeks) was 64.4 mg/kg/day, the TD50 (rat, strain Fischer 344, males, in feed, site: kidney + liver, lesion: adenocarcinoma, NOS + tubular-cell adenoma + tubular-cell adenocarcinoma + hepatocellular carcinoma + neoplastic nodule, dosed 78 weeks, study length 104 weeks) was 34.1 mg/kg/day and the TD50 (rat, strain Fischer 344, males, in feed, site: kidney, lesion: adenocarcinoma, NOS + tubular-cell adenocarcinoma, dosed 78 weeks, study length 104 weeks) was 441 mg/kg/day. For the same compound, the TD50 (rat, strain Fischer 344, males, in feed, site: kidney, lesion: adenocarcinoma, NOS + tubular-cell adenoma + tubular-cell adenocarcinoma, dosed 78 weeks, study length 104 weeks) was 131 mg/kg/day, the TD50 (rat, strain Fischer 344, males, in feed, site: kidney, lesion: tubular-cell adenoma, dosed 78 weeks, study length 104 weeks) was 196 mg/kg/day and the TD50 (rat, strain Fischer 344, males, in feed, site: liver, lesion: hepatocellular adenoma + hepatocellular carcinoma + neoplastic nodule, dosed 78 weeks, study length 104 weeks) was 39.9 mg/kg/day. The TD50 (rat, strain Fischer 344, males, in feed, site: liver, lesion: hepatocellular carcinoma + neoplastic nodule, dosed 78 weeks, study length 104 weeks) was 39.9 mg/kg/day, the TD50 (rat, strain Fischer 344, males, in feed, site: liver, lesion: hepatocellular carcinoma, dosed 78 weeks, study length 104 weeks) was 150 mg/kg/day and the TD50 (rat, strain Fischer 344, males, in feed, site: pituitary gland, lesion: adenoma, NOS + chromophobe adenoma, dosed 78 weeks, study length 104 weeks) was 136 mg/kg/day. The TD50 (rat, strain Fischer 344, males, in feed, site: thyroid gland, lesion: c-cell adenoma + c-cell carcinoma, dosed 78 weeks, study length 104 weeks) was 283 mg/kg/day.

For `C[C@]12C=CC(=O)C=C1CC[C@@H]1[C@@H]2C(=O)C[C@@]2(C)[C@H]1CC[C@]2(O)C(=O)CO`, the carcinogen call (mouse, strain Charles River CD1, females, in feed, site: liver, lesion: several types, types named in the paper, dosed 78 weeks, study length 78 weeks) was “negative (inactive)”, the carcinogen call (mouse, strain Charles River CD1, females, in feed, site: lung, lesion: alveolar/bronchiolar tumor, dosed 78 weeks, study length 78 weeks) was “negative (inactive)” and the carcinogen call (mouse, strain Charles River CD1, females, in feed, site: lung, lesion: undifferentiated carcinoma, dosed 78 weeks, study length 78 weeks) was “negative (inactive)”. For the same compound, the carcinogen call (mouse, strain Charles River CD1, males, in feed, site: liver, lesion: several types, types named in the paper, dosed 78 weeks, study length 78 weeks) was “negative (inactive)” and the carcinogen call (mouse, strain Charles River CD1, males, in feed, site: lung, lesion: alveolar/bronchiolar tumor, dosed 78 weeks, study length 78 weeks) was “negative (inactive)”.

In the case of `CC(=O)OC1CC(C)CCC1C(C)C` (stereo not drawn) (tested in a mixture with another compound), the TD50 (mouse, strain CFLP, males, by gavage, site: any site (literature study), lesion: malignant tumor, dosed 80 weeks, study length 104 weeks) is reported as 112 mg/kg/day.
